From US6479673B1, “Antiretroviral enantiomeric nucleotide analogs” (Institute of Organic Chemistry and Biochemistry of the …, priority 1992, dated 2002) come the findings set out here.

The test system of one series is C3H/3T3 cells. Kind of series: Microscopic alteration of C3H/3T3 cell culture morphology. Particulars: concentration that results in a microscopic alteration of C3H/3T3 cell culture morphology. It is filed as cell-based, murine.
In the next series the test system is HIV-2. In words: HIV-2 induced cytopathicity in MT-4 cells. It is filed as cell-based, human immunodeficiency virus type 2. The method, then:
(§1) The activity of the compounds against HIV-1 and HIV-2 induced cytopathicity was examined in human lymphocyte MT-4 cells. […] The infected cell cultures were then incubated at 37° C. for 5 days in a humidified CO2-controlled incubator. Then, the cytopathicity of the virus was examined by determination of MT-4 cell viability by trypan blue dye staining.
(Cytopathic effects are the visible damage that an infection or toxin causes in cultured cells.)

Another series deals with retrovirus replication. In words: Anti-retrovirus activity in vitro (conclusions on HIV and MSV tests). Particulars: in vitro. Type of series: cell-based.
Series [1] relates to Moloney murine sarcoma virus (MSV). In words: MSV infection in three-week-old NMRI mice, oral administration. Type of series: in vivo. Particulars: twice a day, 100 mg/kg (total dose) daily for five days. The method, then: Three-week-old NMRI mice (about 10 grams body weight) were injected intramuscularly in the left hind leg with 50 μl of 20-fold diluted stock preparation of Moloney murine sarcoma virus. Starting 2-4 hours before virus infection,six animals received an orally administered test compound twice a day at 100 mg/kg(total dose) daily for five subsequent days. The control (placebo) group consisted of 14 animals. The experiment was evaluated as described in Example 35.

For another series, the system named is MT-4 cells. In words: MT-4 cell viability (cytotoxicity). It is filed as cell-based, human. The method, then: The activity of the compounds against HIV-1 and HIV-2 induced cytopathicity was examined in human lymphocyte MT-4 cells. […]. The infected cell cultures were then incubated at 37° C. for 5 days in a humidified CO2-controlled incubator. Then, the cytopathicity of the virus was examined by determination of MT-4 cell viability by trypan blue dye staining. The results are summarized in Table 1 in comparison with the data on the prototype compounds.

Series [2] deals with Moloney murine sarcoma virus (MSV). In words: MSV infection in newborn NMRI mice, intraperitoneal administration. Type of series: in vivo. Details: protection of the animals against MSV-induced tumor development: unit not given here. The method, then: Two gram newborn NMRI mice were injected intramuscularly in the left hind leg with 50 μl of 250-fold diluted stock preparation of Moloney murine sarcoma virus. […] Another group of mice (20 animals) was administered RPMI-1640 medium as placebo. All compounds were solubilized in RPMI-1640 medium. The mice were observed daily for 20 days and the day of tumor initiation and the day of animal death was recorded for each animal. Statistical analyses were performed by calculating the standard deviation.

The next series relates to HIV-1. Kind of series: HIV-1 induced cytopathicity in MT-4 cells. Type of series: cell-based, human immunodeficiency virus type 1. As for the experimental part: as §1
In series [3] the test system is Moloney murine sarcoma virus (MSV). Kind of series: MSV-induced transformation of C3H/3T3 cells. Type of series: cell-based. Particulars: concentration inhibiting MSV-induced cell transformation by 50%. The method, then: The cells were seeded in 1-ml-wells of a 48-well microtiter plate and exposed to 80 PFU (plaque forming units) for 60-90 minutes. Then, the virus was removed and culture medium containing appropriate concentrations of the test compounds were added (1 ml per well). At day 6 post infection, MSV-induced transformation of the cell culture was examined microscopically.

Setting [4] is: MT-4 cells, concentration inhibiting HIV-induced cytopathicity by 50%.

In brackets after ≈: the same amount, converted by molar mass. Some results are limits rather than exact numbers.

Usually CC50 stands for the concentration that lowers cell viability or growth by half. `C[C@H](Cn1cnc2c(N)nc(N)nc21)OCP(=O)(O)O` [(R)-PMPDAP, 9-(R)-(2-Phosphonomethoxypropyl)-2,6-Diaminopurine]: the MIC with C3H/3T3 cells was greater than 100 µg/mL. Moreover, the “selectivity index (ratio cytotoxic dose/antivirally active dose)” value in the series on HIV-2 (HIV-2) and in the series with HIV-1 (HIV-1) was greater than 2000 in each case. Moreover, the “EC50 HIV-2” value with HIV-2 (setting [4]) came out at 0.06 µg/mL (≈ 0.199 µM). This compound also yielded an EC50 retrovirus replication in the series on retrovirus replication of 0.01 to 0.1 µg/mL. Further, the “Mean day of tumor initiation” value was 7.5 ± 1.0^*) day in series [1]; 11 days in series [2] (2 mg/kg single dose i.p., NMRI mice); 12.8 days in series [2] (5 mg/kg single dose i.p., NMRI mice); 11.5 days in series [2] (10 mg/kg single dose i.p., NMRI mice); 11 days in series [2] (20 mg/kg single dose i.p., NMRI mice). For the same compound, the “Number of mice developing tumor (%)” value in series [1] was found to be 67%. In addition, the “concentration non-toxic to the cells” value in the series with MT-4 cells was determined as 100 µg/mL. The CC50 in the series on MT-4 cells (concentration reducing MT-4 cell viability by 50%) was greater than 100 µg/mL. The “percentage of MSV-infected mice still alive at day 20 post infection” value is reported as “(90) %” in series [2] (5 mg/kg single dose i.p.), “(90) %” in series [2] (10 mg/kg single dose i.p.) and “(95) %” in series [2] (20 mg/kg single dose i.p.). In addition, the “percentage of MSV-infected mice without tumor at day 20 post infection” value in series [2] (5 mg/kg single dose i.p.) is “(70) %”; in series [2] (10 mg/kg single dose i.p.), “(90) %”; in series [2] (20 mg/kg single dose i.p.), “(95) %”. In series [2] (i.p., NMRI mice), the “anti-MSV activity in vivo relative to (R)-PMPA” value is “five fold superior over (R)-PMPA”. Also, the “protection of the animals against MSV-induced tumor development” value in series [2] (single dose of 10-20 mg/kg i.p.) is recorded as 90-95. Further, the “EC50 HIV-1” value with HIV-1 (setting [4]) was 0.05 µg/mL (≈ 0.165 µM). The “EC50 MSV” value in series [3] was 0.14 µg/mL (≈ 0.463 µM).
